From PubChem BioAssay AID1996 come the findings set out here.

In brackets after ≈: the same amount, converted by molar mass.

The conditions of the series: buffer; pH 7.4; 200.0 µM.
Usually solubility (kinetic) stands for the concentration staying in solution when a stock, usually in DMSO, is diluted into the medium. The molecule `O=C(Nc1ccc(C(F)(F)F)cc1)c1ccc2ncsc2c1` yielded a solubility (kinetic) of 4.6 µg/mL (≈ 14.3 µM).

The molecule `CCOc1ccc(CC(=O)Nc2cc(=O)n(C)c(=O)n2C)cc1` yielded a solubility (kinetic) of 4.8 µg/mL (≈ 15.1 µM). The result for `CC(C)c1ccc(S(=O)(=O)NC2CCS(=O)(=O)C2)cc1` (stereo not drawn) reads more than 47.6 µg/mL; that for `Cc1ncc([N+](=O)[O-])n1CC(=O)Nc1ccc(Br)cc1`, 9.9 µg/mL (≈ 29.2 µM).

Consider `Cn1c(SCc2ccc(Br)cc2)nc2c(c1=O)SCC2`, for which the kinetic solubility was less than 0.4 µg/mL.

`COc1cccc(NC(=O)c2sc(Cl)nc2C)c1` returned a kinetic solubility of more than 42.4 µg/mL. On to `COC(=O)c1cccc(NC(=O)c2cc3ccccc3o2)c1`, for which the solubility (kinetic) amounted to 13.5 µg/mL (≈ 45.7 µM). With `CC(C)NC(=S)N(CCc1ccncc1)C(C)C` the figure was 27.4 µg/mL (≈ 103 µM); with `COC(=O)[C@H](CCSC)NC(=O)c1cccnc1SC`, 38.8 µg/mL (≈ 123 µM); with `Cc1cc(NCCCN(C)C)n2c(nc3ccccc32)c1C#N`, more than 46.1 µg/mL. With `CC(=O)c1ccc(Oc2nc3c(c(=O)n(C)c(=O)n3C)n2C)cc1` the figure was 9.1 µg/mL (≈ 27.7 µM). `CN(CC(=O)NC1CC1)S(=O)(=O)c1ccc(F)cc1` showed a solubility (kinetic) of more than 42.9 µg/mL. The result for `O=C(CN1CCCc2ccccc21)NCCc1ccc(F)cc1` reads more than 46.9 µg/mL; that for `COc1ccc(NC(=O)NC2(C(=O)N3CCCC3)CCCCC2)cc1`, 24 µg/mL (≈ 69.5 µM); that for `N#Cc1ccc(OCc2ccc(C(=O)O)o2)cc1`, more than 36.5 µg/mL.

Molecule `S=c1[nH]ccn1-c1cccc(Cl)c1Cl` returned a kinetic solubility of more than 36.8 µg/mL. The result for `CC(=O)NC1(C(F)(F)F)C(=O)Nc2c1c(=O)[nH]c(=O)n2CC(C)C` (stereo not drawn) reads less than 0.2 µg/mL.

The molecule `C#CCOC(=O)Nc1cc(C)n(-c2ccccc2)n1` registered a kinetic solubility of more than 38.3 µg/mL. In turn, `COc1cccc(-c2nc(-c3ccc(Br)o3)no2)c1` registered a solubility (kinetic) of 0.5 µg/mL (≈ 1.56 µM). The result for `Cc1ccccc1C(=O)NCCOc1ccccc1Cl` reads 40.4 µg/mL (≈ 139 µM); that for `CCCSc1sc(C(=O)OC)c(-c2cccs2)c1C#N`, less than 0.7 µg/mL.

`CN(CC(=O)NCc1ccc(F)cc1)Cc1cccc(Cl)c1` showed a solubility (kinetic) of 38.7 µg/mL (≈ 121 µM). As to `COc1cc([N+](=O)[O-])ccc1NC(=O)Cc1ccccc1`, the kinetic solubility is 5.5 µg/mL (≈ 19.2 µM). The result for `O=C(/C=C/c1ccc(F)cc1)NCCCn1ccnc1` reads more than 41 µg/mL.

Molecule `Cc1cccc(C)c1OCCN1CCCC1` returned a solubility (kinetic) of 28.7 µg/mL (≈ 131 µM). Consider `COc1ccc(Nc2cc(C)nc3c(C)cccc23)cc1OC`, for which the solubility (kinetic) was more than 46.3 µg/mL.

For the molecule `CC(CCc1ccccc1)NC(=O)Cc1cccs1` (stereo not drawn), the kinetic solubility came to 36 µg/mL (≈ 132 µM).

As for `COc1ccc(OCCN2C(=O)c3ccccc3C2=O)c([N+](=O)[O-])c1`, the solubility (kinetic) came out at 1 µg/mL (≈ 2.92 µM). The molecule `CN1C(=O)C(O)(CC(=O)/C=C/c2ccco2)c2ccccc21` (stereo not drawn) yielded a kinetic solubility of more than 44.6 µg/mL.

In turn, `CCOC(=O)NN1C(=O)c2ccccc2NC1c1cccnc1` (stereo not drawn) displayed a solubility (kinetic) of more than 46.8 µg/mL.

As for `COc1ccc(Nc2ncnc3sc(C)cc23)c(OC)c1.Cl`, the kinetic solubility is more than 50.7 µg/mL. In the case of `COCCn1cnc2c1c(=O)[nH]c(=O)n2Cc1ccccc1`, the kinetic solubility was 37 µg/mL (≈ 123 µM). `Cc1ccc(NC(=O)CN(C)C(=O)C2COc3ccccc3O2)cc1` (stereo not drawn) gave a kinetic solubility of 47.4 µg/mL (≈ 139 µM). Molecule `O=C(O)c1cc(O)ccc1NC(=O)C1CCCO1` (stereo not drawn) gave a solubility (kinetic) of 30.1 µg/mL (≈ 120 µM). This solubility kinetic is about 1.6-fold lower than that of the molecule before. With `O=C(NCC1CC1)c1ccccc1Cl` the figure was more than 31.5 µg/mL; with `O/C(=C\c1nc2ccccc2[nH]1)c1cccs1`, 28.3 µg/mL (≈ 117 µM). Regarding `CC(NCC(=O)NCC(=O)Nc1ccc(F)cc1)c1cccc(C(F)(F)F)c1` (stereo not drawn), the solubility (kinetic) was more than 59.6 µg/mL.

Consider `CC(C)NC(=O)[C@H]1N2C(=O)c3ccccc3C2SC1(C)C` (stereo partly drawn), for which the kinetic solubility is more than 45.7 µg/mL.

As for `Cc1cc(OCC(=O)N2CCOCC2)ccc1[N+](=O)[O-]`, the kinetic solubility was more than 42 µg/mL. With `O=C(NCc1ccccc1F)c1cccc(S(=O)(=O)N2CCCCC2)c1` the figure was 5.8 µg/mL (≈ 15.4 µM); with `CCOc1ccccc1NC(=O)N1CCCc2ccccc21`, less than 0.3 µg/mL; with `C=CCN1C(=O)C2(OCCCO2)c2cc(C)ccc21`, 19.4 µg/mL (≈ 74.8 µM). The result for `COc1ccc(/C=C/c2noc(-c3ccccc3OC(C)=O)n2)cc1` reads 0.6 µg/mL (≈ 1.78 µM); that for `CCN(CC)C(=O)CN1C(=O)c2cccc3cccc1c23`, more than 42.4 µg/mL.

For the molecule `COc1ccc(NC(=O)C(Cc2ccccc2)n2cccc2)cc1` (stereo not drawn), the kinetic solubility stood at 26.5 µg/mL (≈ 82.7 µM). With `Cc1cc(C(=O)OCC(=O)NC(C)c2ccccc2)c(C)o1` (stereo not drawn) the figure was 17.7 µg/mL (≈ 58.7 µM); with `CC(=O)N1c2ccccc2Sc2ccccc21`, 26.4 µg/mL (≈ 109 µM). With `C=CCn1cnc2c(oc3ccccc32)c1=O` the figure was more than 33.9 µg/mL. In turn, `O=c1c(-c2ccccc2)c(O)c2ccccc2n1-c1ccccc1` gave a solubility (kinetic) of more than 47 µg/mL. The result for `O=[N+]([O-])c1ccc(C(O)CN2CCN(c3ccccc3)CC2)cc1` (stereo not drawn) reads 3 µg/mL (≈ 9.16 µM).

`Nc1ccc(C(=O)Nc2nccs2)cc1`: the solubility (kinetic) is more than 32.9 µg/mL. `CN(CC(=O)Nc1ccc(OC(F)(F)F)cc1)C(=O)/C=C/c1ccco1` yielded a solubility (kinetic) of 7.7 µg/mL (≈ 20.9 µM). `O=CNc1ccc(OC(=O)c2cncc(Br)c2)cc1` had a kinetic solubility of 15.4 µg/mL (≈ 48 µM). This solubility kinetic lies about 2-fold higher than the previous one.
